According to ChEMBL document CHEMBL1255545, “Synthesis and evaluation of 1,2,4-triazolo[1,5-c]pyrimidine derivatives as A2A receptor-selective antagonists” (Bioorg Med Chem Lett, 2010):

molecular target: Adenosine receptor A2a (Homo sapiens, UniProt P29274); experiment: Displacement of [3H]CGS21680 from human adenosine A2A receptor expressed in HEK293 cells at 10 uM; assay type: cell-based
Sequence (P29274 whole entry): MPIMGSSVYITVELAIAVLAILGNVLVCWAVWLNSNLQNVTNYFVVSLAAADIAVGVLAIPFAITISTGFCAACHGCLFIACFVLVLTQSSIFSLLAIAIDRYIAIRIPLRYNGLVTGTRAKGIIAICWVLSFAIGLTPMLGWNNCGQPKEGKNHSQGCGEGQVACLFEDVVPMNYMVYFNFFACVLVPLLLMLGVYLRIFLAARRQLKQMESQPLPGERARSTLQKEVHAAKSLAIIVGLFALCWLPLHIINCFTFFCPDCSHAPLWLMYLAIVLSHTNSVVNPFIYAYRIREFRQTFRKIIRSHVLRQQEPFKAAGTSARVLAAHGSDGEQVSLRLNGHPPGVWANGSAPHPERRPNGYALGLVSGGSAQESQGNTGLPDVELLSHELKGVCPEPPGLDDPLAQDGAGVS

SMILES	Ki [nM]
Nc1nc2c(cnn2CCCc2ccc(O)cc2)c2nc(-c3ccco3)nn12	48.3
Nc1nc2c(cnn2CCCc2ccc(O/C=C/c3ccccc3)cc2)c2nc(-c3ccco3)nn12	308
Nc1nc2c(cnn2CCCc2ccc(OCCc3ccccc3)cc2)c2nc(-c3ccco3)nn12	78.9
CCOc1ccc(CCCn2ncc3c2nc(N)n2nc(-c4ccco4)nc32)cc1	43.9
CS(=O)(=O)OCCOc1ccc(CCCn2ncc3c2nc(N)n2nc(-c4ccco4)nc32)cc1	45.7

Further lines, results first:

Ki [nM]	SMILES
9	C=CCOc1ccc(CCCn2ncc3c2nc(N)n2nc(-c4ccco4)nc32)cc1
23.9	Nc1nc2c(cnn2CCCc2ccc(OCCO)cc2)c2nc(-c3ccco3)nn12
11.7	CCCOc1ccc(CCCn2ncc3c2nc(N)n2nc(-c4ccco4)nc32)cc1
14.4	C=CCCOc1ccc(CCCn2ncc3c2nc(N)n2nc(-c4ccco4)nc32)cc1
13.3	CC(C)Oc1ccc(CCCn2ncc3c2nc(N)n2nc(-c4ccco4)nc32)cc1
22.1	CCC(C)Oc1ccc(CCCn2ncc3c2nc(N)n2nc(-c4ccco4)nc32)cc1 (stereo not drawn)
12.4	Nc1nc2c(cnn2CCCc2ccc(OCCF)cc2)c2nc(-c3ccco3)nn12

molecular target: T1, Adenosine receptor A3 (Homo sapiens) (UniProt P0DMS8); experiment: Displacement of [125I]I-AB-MECA from human adenosine A3 receptor expressed in CHO cells at 10 uM; assay type: cell-based
T1 sequence (whole entry): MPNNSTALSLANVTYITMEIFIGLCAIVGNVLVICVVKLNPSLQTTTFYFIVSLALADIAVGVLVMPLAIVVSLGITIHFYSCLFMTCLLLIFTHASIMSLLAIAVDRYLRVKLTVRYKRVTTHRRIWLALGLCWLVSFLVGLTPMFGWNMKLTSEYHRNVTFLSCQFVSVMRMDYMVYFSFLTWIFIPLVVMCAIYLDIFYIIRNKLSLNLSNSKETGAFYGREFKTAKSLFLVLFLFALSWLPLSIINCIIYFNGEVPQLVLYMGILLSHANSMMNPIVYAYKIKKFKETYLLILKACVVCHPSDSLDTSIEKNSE

SMILES	inhibition [%]
COc1ccc(CCCn2ncc3c2nc(N)n2nc(-c4ccco4)nc32)cc1	67.4
Nc1nc2c(cnn2CCCc2ccc(O)cc2)c2nc(-c3ccco3)nn12	34.2
Nc1nc2c(cnn2CCCc2ccc(O/C=C/c3ccccc3)cc2)c2nc(-c3ccco3)nn12	17.8
Nc1nc2c(cnn2CCCc2ccc(OCCc3ccccc3)cc2)c2nc(-c3ccco3)nn12	18.2
CS(=O)(=O)OCCOc1ccc(CCCn2ncc3c2nc(N)n2nc(-c4ccco4)nc32)cc1	62.4

Now from value to molecule:

inhibition [%]	SMILES
62.5	C=CCOc1ccc(CCCn2ncc3c2nc(N)n2nc(-c4ccco4)nc32)cc1
57.8	Nc1nc2c(cnn2CCCc2ccc(OCCO)cc2)c2nc(-c3ccco3)nn12
36.5	CCCOc1ccc(CCCn2ncc3c2nc(N)n2nc(-c4ccco4)nc32)cc1
44.8	C=CCCOc1ccc(CCCn2ncc3c2nc(N)n2nc(-c4ccco4)nc32)cc1
72.8	CC(C)Oc1ccc(CCCn2ncc3c2nc(N)n2nc(-c4ccco4)nc32)cc1
41.9	CCC(C)Oc1ccc(CCCn2ncc3c2nc(N)n2nc(-c4ccco4)nc32)cc1 (stereo not drawn)
59.6	Nc1nc2c(cnn2CCCc2ccc(OCCF)cc2)c2nc(-c3ccco3)nn12

molecular target: T2, Adenosine receptor A3 (Homo sapiens, UniProt P0DMS8); experiment: Displacement of [125I]I-AB-MECA from human adenosine A3 receptor expressed in CHO cells; assay type: cell-based
T2 sequence (P0DMS8 whole entry): T1 sequence (whole entry)

SMILES	Ki [nM]
CCOc1ccc(CCCn2ncc3c2nc(N)n2nc(-c4ccco4)nc32)cc1	4940

molecular target: T3, Adenosine receptor A1 (Homo sapiens) (UniProt P30542); experiment: Displacement of [3H]CCPA from human adenosine A1 receptor expressed in CHO cells at 10 uM; assay type: cell-based
T3 sequence (whole entry): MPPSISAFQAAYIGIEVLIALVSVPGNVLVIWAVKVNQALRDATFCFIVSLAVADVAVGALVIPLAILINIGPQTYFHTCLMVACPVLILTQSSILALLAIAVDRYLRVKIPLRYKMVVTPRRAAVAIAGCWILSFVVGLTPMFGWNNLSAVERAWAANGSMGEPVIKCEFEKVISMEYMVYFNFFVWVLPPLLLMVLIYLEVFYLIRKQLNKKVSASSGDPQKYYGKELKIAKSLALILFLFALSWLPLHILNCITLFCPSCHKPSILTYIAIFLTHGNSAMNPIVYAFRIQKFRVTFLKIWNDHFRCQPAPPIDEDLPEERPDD

SMILES	inhibition [%]
COc1ccc(CCCn2ncc3c2nc(N)n2nc(-c4ccco4)nc32)cc1	38.4
Nc1nc2c(cnn2CCCc2ccc(O)cc2)c2nc(-c3ccco3)nn12	44.3
Nc1nc2c(cnn2CCCc2ccc(O/C=C/c3ccccc3)cc2)c2nc(-c3ccco3)nn12	7.3
Nc1nc2c(cnn2CCCc2ccc(OCCc3ccccc3)cc2)c2nc(-c3ccco3)nn12	6.9
CCOc1ccc(CCCn2ncc3c2nc(N)n2nc(-c4ccco4)nc32)cc1	4.8
CS(=O)(=O)OCCOc1ccc(CCCn2ncc3c2nc(N)n2nc(-c4ccco4)nc32)cc1	27.8

Continued, values first:

inhibition [%]	SMILES
32.8	C=CCOc1ccc(CCCn2ncc3c2nc(N)n2nc(-c4ccco4)nc32)cc1
47.9	Nc1nc2c(cnn2CCCc2ccc(OCCO)cc2)c2nc(-c3ccco3)nn12
17.9	CCCOc1ccc(CCCn2ncc3c2nc(N)n2nc(-c4ccco4)nc32)cc1
25.5	C=CCCOc1ccc(CCCn2ncc3c2nc(N)n2nc(-c4ccco4)nc32)cc1
35	CC(C)Oc1ccc(CCCn2ncc3c2nc(N)n2nc(-c4ccco4)nc32)cc1
16.8	CCC(C)Oc1ccc(CCCn2ncc3c2nc(N)n2nc(-c4ccco4)nc32)cc1 (stereo not drawn)
42.7	Nc1nc2c(cnn2CCCc2ccc(OCCF)cc2)c2nc(-c3ccco3)nn12
